These results are taken from patent US12552772B2, “2-pyrazole anilines and related analogs for inhibiting YAP/TAZ-TEAD” (KATHOLIEKE UNIVERSITEIT LEUVEN, priority 2021, dated 2026).

The test system of test [1] is YAP/TAZ-TEAD transcription. Kind of test: Reporter gene assay for measuring the inhibition of YAP/TAZ-TEAD transcription (TEAD-responsive element luciferase reporter in Hek293T cells). The format is cell-based. Particulars: Homo sapiens, HEK-293T, 24 hours incubation. In a few lines: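 Percent inhibition, scaled between vehicle (0%) and a positive control inhibitor (100%), came from SteadyLite luciferase signal after 24 h compound exposure at 37 °C/5% CO2. Cells: Hek293T transiently carrying a TEAD-responsive luciferase reporter; EC50 derived.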
Background: A reporter such as luciferase makes a cellular process visible.

The next test deals with NCI-H226. Kind of test: Mesothelioma cell line proliferation assay (ATPlite), NCI-H226. It is filed as cell-based. Conditions: Homo sapiens, 144 h; NCI-H226 cells, 6 days, ATPlite cell viability. In a few lines: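 Mesothelioma cells seeded at 1500 cells/well in RPMI 1640 with 10% FBS, incubated overnight, then treated with compound dose-response in DMSO for 6 days at 37° C, 5% CO2. Viability read by ATPlite luminescence; percent inhibition used to derive EC50.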
(In general: In ATP-based viability assays light output follows the ATP content of the culture.)

The subject of a further test is H2452. The test can be described thus: Mesothelioma cell line proliferation assay, H2452. It is filed as cell-based. Particulars: Homo sapiens, NCI-H2452; H2452 cells.
In a further test the test system is YAP. Particulars: mouse models of YAP-driven tumorigenesis; cited from earlier work.
Test [2] concerns NF2 mutant mesothelioma cell lines. Conditions: NF2 mutant mesothelioma cell lines (but not WT mesothelioma); cited from earlier work.

For orientation: EC50 means the concentration that produces a half-maximal response. Lower therefore signals higher potency in that assay. On to `CNS(=O)(=O)CCNc1ccc(-c2ccc(F)cc2)cc1-c1ccn(Cc2cccnc2)n1` [compound 086, 2-((4′-fluoro-3-(1-(pyridin-3-ylmethyl)-1H-pyrazol-3-yl)-[1,1′-biphenyl]-4-yl)amino)-N-methylethane-1-sulfonamide], for which the EC50 in test [1] is less than 1 µM; with NCI-H226, 1 to 10 µM; in the test with H2452 it was more than 10 µM.

Regarding `CNS(=O)(=O)CCNc1ccc(-c2ccc(C(F)(F)F)cc2)cc1-c1ccn(Cc2cccnc2)n1` [compound 087, N-methyl-2-((3-(1-(pyridin-3-ylmethyl)-1H-pyrazol-3-yl)-4′-(trifluoromethyl)-[1,1′-biphenyl]-4-yl)amino)ethane-1-sulfonamide], the EC50 in test [1] is less than 1 µM; with NCI-H226, 1 to 10 µM; with H2452 it was more than 10 µM.

Consider `CNS(=O)(=O)CCNc1ccc(-c2ccc(F)c(F)c2)cc1-c1ccn(Cc2cccnc2)n1` [compound 093, 2-((3′,4′-difluoro-3-(1-(pyridin-3-ylmethyl)-1H-pyrazol-3-yl)-[1,1′-biphenyl]-4-yl)amino)-N-methylethane-1-sulfonamide], for which the EC50 in test [1] was less than 1 µM; in the test on NCI-H226, less than 1 µM; with H2452, more than 10 µM.

On to `CNS(=O)(=O)CCNc1ccc(-c2ccccc2)cc1-c1ccn(Cc2ccccc2)n1` [compound 102, 2-((3-(1-benzyl-1H-pyrazol-3-yl)-[1,1′-biphenyl]-4-yl)amino)-N-methylethane-1-sulfonamide], for which the concentration for a half-maximal effect (EC50) is less than 1 µM in test [1], more than 10 µM in the test on NCI-H226 and more than 10 µM in the test with H2452.

With `CNS(=O)(=O)CCNc1ccc(-c2ccc(F)cc2)cc1-c1ccn(C)n1` [compound 117, 2-((4′-fluoro-3-(1-methyl-1H-pyrazol-3-yl)-[1,1′-biphenyl]-4-yl)amino)-N-methylethane-1-sulfonamide], the EC50 in test [1] was less than 1 µM; with NCI-H226, more than 10 µM; in the test on H2452 it was more than 10 µM.

For the compound `CNS(=O)(=O)CCNc1ccc(-c2ccc(C(F)(F)F)cc2)cc1-c1ccn(C)n1` [compound 118, N-methyl-2-((3-(1-methyl-1H-pyrazol-3-yl)-4′-(trifluoromethyl)-[1,1′-biphenyl]-4-yl)amino)ethane-1-sulfonamide], the EC50 is less than 1 µM in test [1], 1 to 10 µM with NCI-H226 and more than 10 µM with H2452.

Take `CNS(=O)(=O)CCNc1ccc(-c2cccc(F)c2)cc1-c1ccn(C)n1` [compound 119, 2-((3′-fluoro-3-(1-methyl-1H-pyrazol-3-yl)-[1,1′-biphenyl]-4-yl)amino)-N-methylethane-1-sulfonamide]: the EC50 in test [1] is less than 1 µM; with NCI-H226, more than 10 µM; in the test with H2452, more than 10 µM.

As to `CNS(=O)(=O)CCNc1ccc(-c2ccc(F)c(F)c2)cc1-c1ccn(C)n1` [compound 124], the EC50 in test [1] was less than 1 µM; in the test on NCI-H226 it was 1 to 10 µM; with H2452 it was more than 10 µM.

Take verteporfin: in the test with YAP, the “suppression of the oncogenic activity of YAP” value is “significantly suppressed the oncogenic activity of YAP”. In test [2], the “sensitivity of YAP-TEAD transcription” value is recorded as “sensitive” and the sensitivity of viability entry is listed as “sensitive”.
